# Reference: patent US9840496B2, “CD38 inhibitors and methods of treatment” (GlaxoSmithKline Intellectual Property (No.2) Limited, priority 2014, dated 2017)
# Molecular target: T1, human CD38 (Homo sapiens, UniProt P28907)
# T1 construct: The extracellular domain of human CD38 was expressed in pichia pastoris and purified to homogeneity; made in house; host or cells: Pichia pastoris
# T1 sequence (P28907 43-300 limits assumed): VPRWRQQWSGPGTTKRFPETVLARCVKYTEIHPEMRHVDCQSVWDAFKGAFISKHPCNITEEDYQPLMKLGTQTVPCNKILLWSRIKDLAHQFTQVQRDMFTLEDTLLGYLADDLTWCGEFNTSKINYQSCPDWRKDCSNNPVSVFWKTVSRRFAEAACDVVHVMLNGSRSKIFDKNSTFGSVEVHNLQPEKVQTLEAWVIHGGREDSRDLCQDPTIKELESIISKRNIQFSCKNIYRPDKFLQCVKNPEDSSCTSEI
# Test: human CD38 enzyme activity colorimetric assay
# Format: biochemical
# Settings: extracellular domain of human CD38, 0.4 nM CD38, 100 uM NAD+
# Procedure: The extracellular domain of human CD38 was expressed in pichia pastoris and purified to homogeneity. The enzyme activity assay was performed in a low-volume 384-well plate in a total volume of 20 μL. A range of concentrations of test compound in 200 nL DMSO was delivered into the assay plate wells. Columns 6 and 18 of the plate contained DMSO with no compound and served as the high signal and low signal controls (no CD38 added), respectively. All additions of assay reagents to the plate were done using a Multidrop Combi, and the plate was shaken 3-5 seconds after each addition. CD38 (0.8 nM) was incubated with test compound in 10 μL containing 100 mM HEPES, pH 7.4, 4 mM EDTA, and 1 mM CHAPS for 30 minutes prior to initiation of the reaction. The reaction was initiated by a 10 μL addition containing 5 mM sodium acetate, pH 4.5, 1 mM CHAPS, 200 μM NAD+ and 500 uM GW323424X. The solutions for each of the two additions were prepared fresh each day from concentrated stocks of the individual components. […] Catalytic formation of this novel chromophore was followed in an Envision microplate reader by reading absorbance at two time points, typically 30 minutes apart within the first 45 minutes of the reaction. These time points were established empirically to ensure the rates determined were in a linear range of product formation. Data analysis was performed in the following way using ActivityBase XE (Abase XE). The data from the 15 and 45 minute reads was processed by performing a subtraction function of 45 minute read value minus 15 minute read value for each plate well. The resulting values for non-control wells were converted to % inhibition using the formula 100*((U−C1)/(C2−C1)) where U is the value of the test well, C1 is the average of the values of the high signal (column 6) control wells, and C2 is the average of the values of the low signal (column 18) control wells. Percent inhibition (y) was plotted versus inhibitor concentration (x), and curve fitting was performed with the following four parameter equation: y=A+((B−A)/(1+(10^x/10^C)^D)), where A is the minimum response, B is the maximum response, C is the log10IC50, and D is the Hill slope.
row,IC50 [nM],Compound
1,500 to 1000,"CCC(O)(CN[C@H]1CC[C@H](NC(=O)c2cc(-n3ccnc3)cc3cc[nH]c23)CC1)C(F)(F)F (stereo partly drawn) [example 1, N-((1r,4r)-4-((2-Hydroxy-2-(trifluoromethyl)butyl)amino)cyclohexyl)-5-(1Himidazol-1-yl)-1H-indole-7-carboxamide]"
2,500 to 1000,"C[C@](CO)(N[C@H]1CC[C@H](NC(=O)c2cc(-n3ccnc3)cc3cc[nH]c23)CC1)C(F)(F)F [example 2, 5-(1H-Imidazol-1-yl)-N-((1R,4r)-4-(((R)-1,1,1-trifluoro-3-hydroxy-2-methylpropan-2-yl)amino)cyclohexyl)-1H-indole-7-carboxamide]"
3,> 1000,"CC(C)c1c[nH]c2c(C(=O)N[C@H]3CC[C@H](OCC(C)(C)O)CC3)cc(-n3ccnc3)cc12 [example 3, N-((1r,4r)-4-(2-Hydroxy-2-methylpropoxy)cyclohexyl)-5-(1H-imidazol-1-yl)-3-isopropyl-1H-indole-7-carboxamide]"
4,< 500,"CNC(=O)[C@H]1CC[C@H](NC(=O)c2cc(-n3ccnc3)cc3cc[nH]c23)CC1 [example 4, 5-(1H-Imidazol-1-yl)-N-((1s,4s)-4-(methylcarbamoyl)cyclohexyl)-1H-indole-7-carboxamide]"
5,< 500,"CC(O)CO[C@H]1CC[C@H](NC(=O)c2cc(-n3ccnc3)cc3cc[nH]c23)CC1 (stereo partly drawn) [example 7, N-((1r,4r)-4-(2-Hydroxypropoxy)cyclohexyl)-5-(1H-imidazol-1-yl)-1H-indole-7-carboxamide]"
6,500 to 1000,"CC(O)CO[C@H]1CC[C@H](NC(=O)c2cc(-n3ccnc3)cc3c(Cl)c[nH]c23)CC1 (stereo partly drawn) [example 8, 3-Chloro-N-((1r,4r)-4-(2-hydroxypropoxy)cyclohexyl)-5-(1H-imidazol-1-yl)-1H-indole-7-carboxamide]"
7,< 500,CC(O)(CO[C@H]1CC[C@H](NC(=O)c2cc(-n3ccnc3)cc3cc[nH]c23)CC1)C(F)(F)F (stereo partly drawn) [example 9]
8,> 1000,"CC(O)(CN[C@H]1CC[C@H](NC(=O)c2cc(-n3ccnc3)cc3cc[nH]c23)CC1)C(F)(F)F (stereo partly drawn) [example 10, 5-(1H-Imidazol-1-yl)-N-((1r,4r)-4-((3,3,3-trifluoro-2-hydroxy-2-methylpropyl)amino)cyclohexyl)-1H-indole-7-carboxamide]"
9,< 500,"CC(O)(C(=O)N[C@H]1CC[C@H](NC(=O)c2cc(-n3ccnc3)cc3cc[nH]c23)CC1)C(F)(F)F (stereo partly drawn) [example 11, 5-(1H-Imidazol-1-yl)-N-((1r,4r)-4-(3,3,3-trifluoro-2-hydroxy-2-methylpropanamido)cyclohexyl)-1H-indole-7-carboxamide]"
10,< 500,"O=C(N[C@H]1CC[C@H](NCC(F)F)CC1)c1cc(-n2ccnc2)cc2cc[nH]c12 [example 12, N-((1r,4r)-4-((2,2-Difluoroethyl)amino)cyclohexyl)-5-(1H-imidazol-1-yl)-1H-indole-7-carboxamide]"
11,> 1000,"O=C(N[C@H]1CC[C@H](NCC(F)F)CC1)c1cc(-n2ccnc2)cc2c(Cl)c[nH]c12 [example 13, 3-Chloro-N-((1r,4r)-4-((2,2-difluoroethyl)amino)cyclohexyl)-5-(1H-imidazol-1-yl)-1H-indole-7-carboxamide]"
12,< 500,"CC(O)(COC1CCC(NC(=O)c2cc(-n3ccnc3)cc3cc[nH]c23)CC1)C1CC1 (stereo not drawn) [example 15, N-((1r,4r)-4-(2-Cyclopropyl-2-hydroxypropoxy)cyclohexyl)-5-(1H-imidazol-1-yl)-1H-indole-7-carboxamide]"
13,> 1000,"C[C@@H](CS(C)(=O)=O)N[C@H]1CC[C@H](NC(=O)c2cc(-n3ccnc3)cc3cc[nH]c23)CC1 [example 16, 5-(1H-Imidazol-1-yl)-N-((1R,4r)-4-(((R)-1-(methylsulfonyl)propan-2-yl)amino)cyclohexyl)-1H-indole-7-carboxamide]"

row,Compound,IC50 [nM]
1,"CC(C)C(O)CO[C@H]1CC[C@H](NC(=O)c2cc(-n3ccnc3)cc3cc[nH]c23)CC1 (stereo partly drawn) [example 14, N-((1r,4r)-4-(2-Hydroxy-3-methylbutoxy)cyclohexyl)-5-(1H-imidazol-1-yl)-1H-indole-7-carboxamide]",< 500
2,"N-((1r,4r)-4-(2-Hydroxy-2-methylpropoxy)cyclohexyl)-5-(1H-imidazol-1-yl)-1H-indole-7-carboxamide [example 6]",< 500
